In article PMC6152416, “Pharmacological and Toxicological Screening of Novel Benzimidazole-Morpholine Derivatives as Dual-Acting Inhibitors” (Molecules : A Journal of Synthetic Chemistry and Natural …, 2017):
Entries after “also recorded” stand apart in the source; their conditions may differ. Marks after values point to notes of the source that are not given here.

How the values were obtained:
[1] = test system: Salmonella typhimurium TA98; experiment: Ames MPF genotoxicity assay; format: cell-based; details: for Ames MPF mutagenicity classification: TA98, in the presence/absence of metabolic activation (S9)
Method: (§1) The genotoxicity of selected compounds (2b, 2j, 2m) was determined by Ames assay using Ames MPF 98/100 mutagenicity assay sample kit (Xenometrix AG, Allschwil, Switzerland) as previously described elsewhere. Salmonella typhimurium strains, TA98 (frameshift mutations) and TA100 (base-pair substitutions) were used in the assay. The concentration of the compounds was between 16 and 5000 μg/mL, in accordance with the guideline. Compounds were prepared in six different concentrations (5.0, 2.5, 1.25, 0.625, 0.3125, 0.156 mg/mL) in DMSO. Mutagenic potential was determined in the absence or presence of Aroclor™-1254 induced male Sprague–Dawley rat liver microsomal enzyme (S9) mix (Xenometrix AG). Positive controls without S9 mix were 2-nitrofluorene (2.0 μg/mL) and 4-nitroquinoline N-oxide (0.1 μg/mL), whereas 1.0 μg/mL and 2.5 μg/mL of 2-aminoanthracene solutions were used as positive controls with S9 against TA98 and TA100, respectively. Solvent control was prepared with 4% DMSO. The end of an experiment was determined by the change of the indicator medium colour to yellow, which was originating from the decrease of pH due to revertant bacteria. Yellow wells were counted as positive, and compared with the negative control. Fold induction over the negative control and fold induction over the baseline were calculated (Fold induction over the negative control is accepted as the ratio of the mean number of positive wells for the dose concentration divided by the mean number of positive wells for the zero dose (negative) control. Fold induction over the baseline is accepted as the ratio of the mean number of positive wells for the dose concentration divided by zero dose baseline. The zero-dose baseline is obtained by adding one standard deviation to the mean number of positive wells of the zero dose control. If the baseline is less than 1, the value is set to 1 for calculation).
(§2) Mutagenicity was determined according to the criteria reported previously. For a baseline value of ≤3, significant increases between 2 and 3-fold of the baseline were classified as weak mutagen, and increases ≥3-fold of the baseline were classified as mutagen. […] As a rule, at least two adjacent doses with significant increases or a significant increase at the highest dose level should be observed for a mutagenic compound. All of the doses were compared according to Student’s t-test at p < 0.05 for statistical significance.

[2] = test system: Salmonella typhimurium TA100; experiment: Ames MPF genotoxicity assay; format: cell-based; details: for Ames MPF mutagenicity classification: TA100, with/without metabolic activation (S9)
Method: as §1, §2

COX-2 = molecular target: T1, COX-2 (Homo sapiens, UniProt P35354); experiment: Fluorimetric COX-2 inhibition screening kit (BioVision); format: biochemical; details: for COX-2 inhibition at the initial concentrations: 10^−3 M and 10^−4 M; for inhibition at 10 µM: 10^−5 M; for inhibition at 1 µM: 10^−6 M, read-out: COX 2 Inhibition %; for inhibition at 0.1 µM: 10^−7 M; for inhibition at 0.01 µM: 10^−8 M; for inhibition at 0.001 µM: 10^−9 M
T1 construct: purchased BioVision (Milpitas, CA, USA) K547-100
T1 sequence (P35354 18-604): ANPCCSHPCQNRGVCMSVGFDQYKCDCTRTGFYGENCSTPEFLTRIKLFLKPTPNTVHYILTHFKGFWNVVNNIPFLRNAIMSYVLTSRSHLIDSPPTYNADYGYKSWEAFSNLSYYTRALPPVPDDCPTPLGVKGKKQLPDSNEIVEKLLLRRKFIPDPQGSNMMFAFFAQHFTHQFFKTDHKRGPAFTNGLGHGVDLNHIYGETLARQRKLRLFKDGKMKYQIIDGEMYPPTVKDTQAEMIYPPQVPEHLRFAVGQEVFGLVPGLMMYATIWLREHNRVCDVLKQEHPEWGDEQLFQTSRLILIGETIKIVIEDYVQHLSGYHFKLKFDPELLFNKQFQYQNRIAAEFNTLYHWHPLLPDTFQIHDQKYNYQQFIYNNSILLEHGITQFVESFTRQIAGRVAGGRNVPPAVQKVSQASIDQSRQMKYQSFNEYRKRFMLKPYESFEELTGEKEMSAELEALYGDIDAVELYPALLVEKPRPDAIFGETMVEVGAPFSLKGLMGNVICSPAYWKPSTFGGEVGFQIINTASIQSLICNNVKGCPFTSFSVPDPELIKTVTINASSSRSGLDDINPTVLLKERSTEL
Method: Inhibitory potency of the compounds on COX-1 and COX-2 enzymes was determined by using fluorimetric COX-1 and COX-2 inhibition screening kits from BioVision (Milpitas, CA, USA). The experimental protocol as described in the guides provided by the supplier was followed. All of the pipetting were performed using a robotized system to increase speed, accuracy and precision. Fluorescence intensities of the samples were kinetically measured at 25 °C for 5–10 min by monitoring emissions at 587 nm after excitation at 535 nm. Two appropriate points (T1 and T2) in the linear range of the plot were chosen and the corresponding fluorescence values (RFU1 and RFU2) were obtained. The slope for all samples including Enzyme Control (EC) was calculated by dividing the net ΔRFU (RFU2 − RFU1) values by the time ΔT (T2 − T1). Percentage of relative inhibition was calculated by using the following equation:% Relative inhibition = (Slope of EC − Slope of S/Slope of EC) × 100 where S is the term representing the tested compound [51, 52]. […] The IC50 values were calculated using the plots of the enzyme activity against concentrations by applying regression analyses.

MTT cytotoxicity assay = format: cell-based, mouse; details: mouse, NIH/3T3 mouse embryonic fibroblast cells, read-out: Cytotoxicity NIH3T3 Cells IC50
Method: (§3) Cytotoxicity was tested using NIH/3T3 mouse embryonic fibroblast cell line (ATCC® CRL-1658™, London, UK). NIH/3T3 cells were incubated according to the supplier’s recommendations. NIH/3T3 cells were seeded as 1 × 10^4 cells into each well of 96-well plates. MTT assay was performed as previously described. The compounds were tested between 1 mM and 0.000316 mM concentrations (1.0, 0.316, 0.10, 0.0316, 0.01, 0.00316, 0.001, 0.000316 mM). The IC50 values were determined by plotting a dose-response curve of inhibition % versus tested concentrations of the compound [62].

[3] = test system: NIH/3T3 mouse embryonic fibroblast cell line; experiment: MTT cytotoxicity assay; format: cell-based; details: NIH/3T3
Method: as §3

Structure (SMILES) | REVERTANTS Fold Increase (over Baseline) ([1]; TA98, S9+, 0.156 mg/mL) | REVERTANTS Fold Increase (over Baseline) ([1]; TA98, S9+, 0.3125 mg/mL) | REVERTANTS Fold Increase (over Baseline) ([1]; TA98, S9+, 0.625 mg/mL) | REVERTANTS Fold Increase (over Baseline) ([1]; TA98, S9+, 1.25 mg/mL) | REVERTANTS Fold Increase (over Baseline) ([1]; TA98, S9+, 2.5 mg/mL) | REVERTANTS Fold Increase (over Baseline) ([1]; TA98, S9+, 5 mg/mL) | REVERTANTS Fold Increase (over Baseline) ([1]; TA98, S9−, 0.156 mg/mL) | REVERTANTS Fold Increase (over Baseline) ([1]; TA98, S9−, 0.3125 mg/mL) | REVERTANTS Fold Increase (over Baseline) ([1]; TA98, S9−, 0.625 mg/mL) | REVERTANTS Fold Increase (over Baseline) ([1]; TA98, S9−, 1.25 mg/mL) | REVERTANTS Fold Increase (over Baseline) ([1]; TA98, S9−, 2.5 mg/mL) | REVERTANTS Fold Increase (over Baseline) ([1]; TA98, S9−, 5 mg/mL) | Ames MPF mutagenicity classification [1] | REVERTANTS Fold Increase (over Baseline) ([2]; TA100, S9+, 0.156 mg/mL) | REVERTANTS Fold Increase (over Baseline) ([2]; TA100, S9+, 0.3125 mg/mL) | REVERTANTS Fold Increase (over Baseline) ([2]; TA100, S9+, 0.625 mg/mL) | REVERTANTS Fold Increase (over Baseline) ([2]; TA100, S9+, 1.25 mg/mL) | REVERTANTS Fold Increase (over Baseline) ([2]; TA100, S9+, 2.5 mg/mL) | COX-2 Inhibition (%) (COX-2; 10^-3 M) | COX-2 Inhibition (%) (COX-2; 10^-4 M) | also measured
CCOc1ccc(-c2nc3ccccc3n2CCN2CCOCC2)cc1 [Compound 2j, 2-(4-Ethoxyphenyl)-1-[2-(morpholin-4-yl)ethyl]-1H-benzimidazole] | 0.25 | 0.12 * | 0.62 | 0.74 | 0.12 | 0.74 * | 0.60 | 0.94 | 0.68 | 0.60 | 0.94 | 0.09 *** | non-genotoxic; also recorded: non-mutagenic | 0.15 | 0.00 | 0.15 | 0.38 | 0.31 | 80.66% | 79.23% | REVERTANTS Fold Increase (over Baseline) ([2]; TA100, S9+, 5 mg/mL): 0.15; REVERTANTS Fold Increase (over Baseline) ([2]; TA100, S9−, 0.156 mg/mL): 0.80; REVERTANTS Fold Increase (over Baseline) ([2]; TA100, S9−, 0.3125 mg/mL): 1.00; REVERTANTS Fold Increase (over Baseline) ([2]; TA100, S9−, 0.625 mg/mL): 0.40; REVERTANTS Fold Increase (over Baseline) ([2]; TA100, S9−, 1.25 mg/mL): 0.67; REVERTANTS Fold Increase (over Baseline) ([2]; TA100, S9−, 2.5 mg/mL): 0.67 ***; REVERTANTS Fold Increase (over Baseline) ([2]; TA100, S9−, 5 mg/mL): 1.20; Ames MPF mutagenicity classification [2]: non-genotoxic; also recorded: non-mutagenic; IC50 (COX-2): 13.1 µM; COX-2 inhibition at the initial concentrations (COX-2): more than 50%; inhibition at 10 µM (COX-2): 52.5 ± 1.35%; inhibition at 1 µM (COX-2): 43.4 ± 1.27%; inhibition at 0.1 µM (COX-2): 34 ± 1.06%; inhibition at 0.01 µM (COX-2): 26.9 ± 0.86%; inhibition at 0.001 µM (COX-2): 20.5 ± 0.76%; IC50 (MTT cytotoxicity assay): 316 µM; cytotoxicity in words [3]: non-cytotoxic
CC(C)c1ccc(-c2nc3ccccc3n2CCN2CCOCC2)cc1 [Compound 2e, 2-(4-Isopropylphenyl)-1-[2-(morpholin-4-yl)ethyl]-1H-benzimidazole] |  |  |  |  |  |  |  |  |  |  |  |  |  |  |  |  |  |  | 14.26% | 22.61% | 
COc1ccc(-c2nc3ccccc3n2CCN2CCOCC2)cc1 [Compound 2b, 2-(4-Methoxyphenyl)-1-[2-(morpholin-4-yl)ethyl]-1H-benzimidazole] | 0.16 | 0.32 | 0.00 | 0.48 | 0.80 | 1.27 | 0.69 | 0.75 | 0.81 | 0.40 | 0.40 | 0.75 | non-genotoxic; also recorded: non-mutagenic | 0.06 | 0.52 | 0.45 | 0.26 | 0.26 | 79.41% | 84.23% | REVERTANTS Fold Increase (over Baseline) ([2]; TA100, S9+, 5 mg/mL): 0.13; REVERTANTS Fold Increase (over Baseline) ([2]; TA100, S9−, 0.156 mg/mL): 1.31 ***; REVERTANTS Fold Increase (over Baseline) ([2]; TA100, S9−, 0.3125 mg/mL): 1.37 ***; REVERTANTS Fold Increase (over Baseline) ([2]; TA100, S9−, 0.625 mg/mL): 0.69; REVERTANTS Fold Increase (over Baseline) ([2]; TA100, S9−, 1.25 mg/mL): 0.62; REVERTANTS Fold Increase (over Baseline) ([2]; TA100, S9−, 2.5 mg/mL): 0.25 ***; REVERTANTS Fold Increase (over Baseline) ([2]; TA100, S9−, 5 mg/mL): 0.44 *; Ames MPF mutagenicity classification [2]: non-genotoxic; IC50 (COX-2): 8.37 µM; COX-2 inhibition at the initial concentrations (COX-2): more than 50%; inhibition at 10 µM (COX-2): 57.9 ± 1.28%; inhibition at 1 µM (COX-2): 43.7 ± 1.12%; inhibition at 0.1 µM (COX-2): 38.1 ± 0.97%; inhibition at 0.01 µM (COX-2): 27.4 ± 0.87%; inhibition at 0.001 µM (COX-2): 21.4 ± 0.74%; IC50 (MTT cytotoxicity assay): 316 µM; cytotoxicity in words [3]: non-cytotoxic
Clc1ccc(-c2nc3ccccc3n2CCN2CCOCC2)cc1 [Compound 2c, 2-(4-Chlorophenyl)-1-[2-(morpholin-4-yl)ethyl]-1H-benzimidazole] |  |  |  |  |  |  |  |  |  |  |  |  |  |  |  |  |  |  | 17.85% | 20.99% | 
